# Measurements reported in patent EP0163537A1, “1-Propanone derivatives and pharmaceutical compositions containing same” (priority 1984, dated 1985).
# Counter-ions that a name gives are not always drawn. Like-named read-outs stand apart in the source and are kept apart here.
# Tests used:
# Format in all cases: in vivo
# Male mice of ddY strain [1] = experiment: Test 1 Anti-nicotine activity (inhibition of nicotine-induced convulsive death); conditions: 200 mg/kg po, nicotine 2 mg/kg iv after 1 h, observed 1 h; for responders at 200 mg/kg: Mus musculus
# Description: Male mice of ddY strain, weighing 28 to 33 g, were used in groups of eight or twelve. The test compounds were dissolved in distilled water and administered orally in a dose of 200 mg/kg. After an hour, nicotine was intravenously administered in a dose of 2 mg/kg.
# Male mice of ddY strain [2] = experiment: Test 2 Anti-tremorine activity (inhibition of tremorine-induced tremor); conditions: for responders at 50 mg/kg: Mus musculus, po, read-out: Inhibition of tremor (%)
# Description: Male mice of ddY strain, weighing 28 to 32 g, were used in groups of eight or ten. The test compounds were dissolved in distilled water and administered orally in a dose of 50 mg/kg. After 30 minutes, tremorine dihydrochloride was subcutaneously administered in a dose of 20 mg/kg. Then, the occurrence of tremor was observed after the lapse of 30 and 60 minutes.
# Male mice of ddY strain [3] = experiment: Test 3 Muscle relaxant activity (traction test, method of Courvoisier et al.); conditions: 15 minutes after administration, groups of ten
# Description: Male mice of ddY strain, weighing 30 to 37 g, were used in groups of ten. The test compounds were dissolved in physiological saline and administered intraperitoneally in a dose of 50 or 75 mg/kg. […] This method involves a traction test in which the animal is hung by its forelimbs on a horizontal metal rod (2 mm in diameter) placed 20 cm above the floor and examined as to whether it can put its hindlimb on the rod or not.
# Specifically, 15 minutes after administration of a test compound, the mouse was hung on the rod by its forelimbs. […] It had been confirmed in preliminary tests that, under normal conditions, all the mice could put their hindlimb on the rod within 5 seconds.
# [4] = Test 5 Acute toxicity (LD50, method of Behrens and Kärbar); conditions: mouse, in vivo, po, mice, observed for 7 days
# Description: Male mice of ddY strain, weighing 25 to 30 g, were used in groups of five. The test compounds were dissolved in distilled water and administered orally in various doses. […] Then, the LDso was calculated according to the method of Behrens and Kärbar.
# [5] = 0.5 h, Table-3d, 50 mg/kg po, After 30 min., 10 animals used
# [6] = 1 h, Table-3d, 50 mg/kg po, After 60 min., 10 animals used
# [7] = po, 1 h, Table-2c, 12 animals used
# [8] = 0.5 h, Table-3b, 50 mg/kg po, After 30 min., 10 animals used
# [9] = 1 h, Table-3b, 50 mg/kg po, After 60 min., 10 animals used
# [10] = Table-3b, 50 mg/kg po, After 30 min., 10 animals used
# [11] = Table-3b, 50 mg/kg po, After 60 min., 10 animals used
# [12] = 0.5 h, Table-3a, 50 mg/kg po, After 30 min. from tremorine 20 mg/kg sc, 8 animals used
# [13] = 1 h, Table-3a, 50 mg/kg po, After 60 min. from tremorine 20 mg/kg sc, 8 animals used
# [14] = po, 1 h, Table-2a, 8 animals used
# [15] = Table-3d, 50 mg/kg po, After 30 min., 10 animals used
# [16] = Table-3d, 50 mg/kg po, After 60 min., 10 animals used
smiles,measurement,setting,value
"CC(CN1CCCCCC1)C(=O)c1ccc2c(c1)OCO2.Cl (centres unmarked) [Example 61, 2-Methyl-1-(3,4-methylenedioxyphenyl)-3-(hexahydro-1H-azepin-1-yl)-1-propanone hydrochloride]",responders at 200 mg/kg,"Male mice of ddY strain [1]; Table-2b, 12 animals used",58.3%
same,Number of surviving animals,"Male mice of ddY strain [1]; Table-2b, 12 animals used",7
"CCCC(CN1CCCCC1)C(=O)c1ccc2c(c1)CCO2.Cl (centres unmarked) [Example 99, 1-(2,3-Dihydro-5-benzofuranyl)-2-n-propyl-3-piperidino-1-propanone hydrochloride]",responders at 50 mg/kg,Male mice of ddY strain [2]; [5],100%
same,responders at 50 mg/kg,Male mice of ddY strain [2]; [6],90%
same,responders at 200 mg/kg,Male mice of ddY strain [1]; [7],25%
same,Number of surviving animals,"Male mice of ddY strain [1]; Table-2c, 12 animals used",3
same,Number of animals exhibiting muscle relaxation,"Male mice of ddY strain [3]; Table-4d, 75 mg/kg ip",2
"CC(C)C(CN1CCCCC1)C(=O)c1ccc(C2CC2)cc1.Cl (centres unmarked) [Example 5, 1-(4-Cyclopropylphenyl)-2-isopropyl-3-piperidino-1-propanone hydrochloride]",responders at 50 mg/kg,Male mice of ddY strain [2]; [8],100%
same,responders at 50 mg/kg,Male mice of ddY strain [2]; [9],100%
same,Number of animals exhibiting no tremor,Male mice of ddY strain [2]; [10],10
same,Number of animals exhibiting no tremor,Male mice of ddY strain [2]; [11],10
"CC(CN1CCCCC1)C(=O)c1ccc(C2CCCC2)cc1.Cl (centres unmarked) [Example 41, 1-(4-Cyclopentylphenyl)-2-methyl-3-piperidino-1-propanone hydrochloride]",responders at 50 mg/kg,Male mice of ddY strain [2]; [12],75%
same,responders at 50 mg/kg,Male mice of ddY strain [2]; [13],12.5%
same,responders at 200 mg/kg,Male mice of ddY strain [1]; [14],37.5%
same,Number of surviving animals,"Male mice of ddY strain [1]; Table-2a, 8 animals used",3
"Cc1ccc(C(=O)C(C)CN2CCCCC2)cc1 (centres unmarked) [Tolperisone HCl, 2-methyl-1-(4-methylphenyl)-3-(1-piperidinyl)-1-propanone, reference compound]",responders at 50 mg/kg,Male mice of ddY strain [2]; [12],0%
same,responders at 50 mg/kg,Male mice of ddY strain [2]; [8],0%
same,responders at 50 mg/kg,Male mice of ddY strain [2]; [5],0%
same,responders at 50 mg/kg,Male mice of ddY strain [2]; [13],0%
same,responders at 50 mg/kg,Male mice of ddY strain [2]; [9],0%
same,responders at 50 mg/kg,Male mice of ddY strain [2]; [6],0%
same,Number of animals exhibiting no tremor,"Male mice of ddY strain [2]; Table-3a, 50 mg/kg po, After 30 min. from tremorine 20 mg/kg sc, 8 animals used",0
same,Number of animals exhibiting no tremor,"Male mice of ddY strain [2]; Table-3a, 50 mg/kg po, After 60 min. from tremorine 20 mg/kg sc, 8 animals used",0
same,Number of animals exhibiting no tremor,Male mice of ddY strain [2]; [10],0
same,Number of animals exhibiting no tremor,Male mice of ddY strain [2]; [11],0
same,Number of animals exhibiting no tremor,Male mice of ddY strain [2]; [15],0
same,Number of animals exhibiting no tremor,Male mice of ddY strain [2]; [16],0
same,responders at 200 mg/kg,Male mice of ddY strain [1]; [14],0%
same,responders at 200 mg/kg,"Male mice of ddY strain [1]; po, 1 h, Table-2b, 12 animals used",0%
same,responders at 200 mg/kg,Male mice of ddY strain [1]; [7],8.3%
same,Number of animals exhibiting muscle relaxation,"Male mice of ddY strain [3]; Table-4a, 50 mg/kg ip",1
same,Number of animals exhibiting muscle relaxation,"Male mice of ddY strain [3]; Table-4d, 75 mg/kg ip",1
same,LD50 at 168 h,[4]; Table-5a,625 mg/kg
same,LD50 at 168 h,[4]; Table-5b,655 mg/kg
same,LD50 at 168 h,[4]; Table-5c,595 mg/kg
"CCC(CN1CCCC1)C(=O)c1ccc2c(c1)CCO2.Cl (centres unmarked) [Example 95, 1-(2,3-Dihydro-5-benzofuranyl)-2-ethyl-3-(1-pyrrolidinyl)-1-propanone hydrochloride]",responders at 50 mg/kg,Male mice of ddY strain [2]; 0.5 h,100%
same,responders at 50 mg/kg,Male mice of ddY strain [2]; 1 h,100%
same,Number of animals exhibiting no tremor,Male mice of ddY strain [2]; [15],10
same,Number of animals exhibiting no tremor,Male mice of ddY strain [2]; [16],10
same,responders at 200 mg/kg,"Male mice of ddY strain [1]; Table-2c, 12 animals used",16.7%
same,Number of surviving animals,"Male mice of ddY strain [1]; Table-2c, 12 animals used",2
"CCCC(CN1CCCCCC1)C(=O)c1ccc2c(c1)CCO2.Cl (centres unmarked) [Example 100, 1-(2,3-Dihydro-5-benzofuranyl)-2-n-propyl-3-(hexahydro-1H-azepin-1-yl)-1-propanone hydrochloride]",responders at 50 mg/kg,Male mice of ddY strain [2]; 0.5 h,100%
same,responders at 50 mg/kg,Male mice of ddY strain [2]; 1 h,100%
same,Number of animals exhibiting no tremor,Male mice of ddY strain [2]; [15],10
same,Number of animals exhibiting no tremor,Male mice of ddY strain [2]; [16],10
same,responders at 200 mg/kg,"Male mice of ddY strain [1]; Table-2c, 12 animals used",0%
same,Number of surviving animals,"Male mice of ddY strain [1]; Table-2c, 12 animals used",0
"CC(CN1CCCC1)C(=O)c1ccc2c(c1)OCO2 (centres unmarked) [Example 60, 2-Methyl-1-(3,4-methylenedioxyphenyl)-3-(1-pyrrolidi-nyl)-1-propanone hydrochloride]",responders at 200 mg/kg,"Male mice of ddY strain [1]; Table-2b, 12 animals used",58.3%
same,Number of surviving animals,"Male mice of ddY strain [1]; Table-2b, 12 animals used",7
"CC(CN1CCCCC1)C(=O)c1ccc(C2CCCCC2)cc1.Cl (centres unmarked) [Example 48, 1-(4-Cyclohexylphenyl)-2-methyl-3-piperidino-1-propanone hydrochloride]",responders at 50 mg/kg,Male mice of ddY strain [2]; [12],100%
same,responders at 50 mg/kg,Male mice of ddY strain [2]; [13],37.5%
same,responders at 200 mg/kg,Male mice of ddY strain [1]; [14],62.5%
same,Number of surviving animals,"Male mice of ddY strain [1]; Table-2a, 8 animals used",5
